According to patent US20110305707A1, “COMPOSITIONS AND METHODS FOR TREATING CANCER” (THE CLEVELAND CLINIC FOUNDATION, priority 2010, published 2011):

Legend:
[1] = test system: F10L_B16 Melanoma Tumor cells; assay: F10L_B16 melanoma in apoA1-KO mice given human ApoA1 or saline throughout the study (xenogen imaging, survival); type: in vivo; conditions: vs normal saline
Method: In another part of this Example, human ApoA1 or normal saline (control) was given to apoA1-KO mice throughout duration of the study following the dosing schedule of 15 mg s.c. QOD. 10^5 F10L_B16 Melanoma Tumor cells were injected subcutaneously into the dorsum of the mice. Total tumor burden and metastases were quantified by xenogen imaging. […] Images of the mice 16 days post tumor injection are shown in FIG. 11, which show much greater tumor growth in the saline treated mice. Images of the mice 21 days post tumor injection are shown in FIG. 12, which show much greater tumor growth in the saline treated mice.

[2] = Plasma levels of apoA1 after subcutaneous apoA1 injection every other day; type: in vivo, mice; conditions: apoA1 s.c. every other day, steady state, days 22-24
Method: In another part of this Example, apoA1 was injected subcutaneously into mice every other day and the plasma levels of apoA1 at steady state (shown in FIG. 9 for says 22-24) were monitored. […] This approximates the plasma levels of apoA1 in humans.

malignant melanoma = assay: Malignant melanoma animal model, apoA1 given as therapy after tumor growth is established; type: in vivo, mice
Method: In another part of this Example, the impact of giving apoA1 as a therapy is evaluated after the tumor growth is established and metastases are detectable. The same malignant melanoma animal model is employed. ApoA1 injections were started one week after tumor injection. […] In the insets for both 16A and 16B, note that apoA1 injections actually shrink peak tumor volume by ˜50% within 1-2 weeks of therapy. A similar ˜50% reduction in peak metastases burden is also noted in the apoA1 treated mice.
In similar experiments, ApoA2 was given in the same dosing strategy as apoA1 vs normal saline (S) control.

[3] = 15 mg s.c. QOD throughout study
[4] = ApoA1 injections started one week after tumor injection
[5] = ApoA2 given in the same dosing strategy, vs normal saline

apolipoprotein A-1 [ApoA1]
metastases formation (xenogen imaging) [1, 3]: blocks tumor growth and metastases formation | tumor growth (total tumor burden, xenogen imaging) [1, 3]: blocks tumor growth | survival ([1]; 15 mg s.c. QOD): much greater survival | plasma level of apoA1 [2]: 75 to 175 mg/dL | metastases formation (malignant melanoma; [4]): dramatically reduced | overall tumor growth (malignant melanoma; [4]): dramatically reduced | potency at reducing cancer growth compared with ApoA2 (malignant melanoma; [5]): markedly more potent | potency at reducing metastases formation compared with ApoA2 (malignant melanoma; [5]): markedly more potent | reduction in peak metastases burden (malignant melanoma; injections started one week after tumor injection): ~50% | shrinkage of peak tumor volume (malignant melanoma; injections started one week after tumor injection, within 1-2 weeks of therapy): ~50%
